The values that follow come from patent US20190374590A1, “USE OF CORDYCEPS MILITARIS EXTRACT FOR TREATMENT OF RENAL DISEASE” (Nan Pao Resins Chemical Co., Ltd., priority 2018, published 2019).

Assay [1] deals with a-smooth muscle actin protein level in AB8/13 human podocytes. Briefly: Western blotting of α-smooth muscle actin protein level in differentiated AB8/13 human podocytes. Type of assay: cell-based. As to conditions: FIG. 2; substance alone (without TGF-β1), compared to dimethyl sulfoxide; 6 days incubation. On the procedure:
(§1) Firstly, AB8/13 human podocytes were incubated in a 33[…] incubator containing 5% carbon dioxide until they grew to a confluence of 80%. The cells were transferred to a 37.5[…] incubator containing 5% carbon dioxide to be incubated for 14 days so that the cells were differentiated. After which, the differentiated cells were incubated with culture medium containing various substances for 6 days. Finally, total protein of the differentiated cells treated with various substances was extracted for Western blotting assay.
(§2) As stated in Diabetes, 2011 Jun; 60(6): 1779-1788, transforming growth factor-β1 (TGF-β1) is greatly expressed in the renal tissue of a diabetic nephropathy patient. This paper further has reported that transforming growth factor-β1 can dedifferentiate differentiated podocytes and induce the disappearance of pseudopods. As stated in Cell Tissue Res. 2012 Jan; 347(1): 141-54, transforming growth factor-β1 participates in renal fibrosis, renal parenchyma degeneration and loss of function associated with chronic kidney disease. For the above reasons, podocytes treated with transforming growth factor-β1 can be used as a cell culture model for renal disease.
In general terms: A western blot detects proteins with antibodies after separation by electrophoresis.

The test system of assay [2] is nephrin protein level in AB8/13 human podocytes. Briefly: Western blotting of nephrin protein level in differentiated AB8/13 human podocytes. It counts as cell-based. As to conditions: FIG. 1; substance alone, compared to dimethyl sulfoxide; 6 days incubation. The procedure: as §1, §2

For transforming growth factor-β1, in assay [1], the “a-smooth muscle actin protein level” value was “upregulate”. In addition, the nephrin protein level result in assay [2] is on record as “downregulate”.
